Laboratory results reported in patent publication US12338243B2, “P2X7 modulators” (JANSSEN PHARMACEUTICA NV, priority 2014, dated 2025).
pIC50, pKi: −log10 of the molar value.

Legend:
[1] = target: T1, P2X7 (Homo sapiens, UniProt Q99572); test: Ca2+ flux (FLIPR) in 1321N1 cells expressing recombinant human P2X7 channel; format: cell-based; set-up: expressed in transfected cells; host or cells: 1321N1 cells; details: 250 μM BzATP
T1 sequence (Q99572 1-595): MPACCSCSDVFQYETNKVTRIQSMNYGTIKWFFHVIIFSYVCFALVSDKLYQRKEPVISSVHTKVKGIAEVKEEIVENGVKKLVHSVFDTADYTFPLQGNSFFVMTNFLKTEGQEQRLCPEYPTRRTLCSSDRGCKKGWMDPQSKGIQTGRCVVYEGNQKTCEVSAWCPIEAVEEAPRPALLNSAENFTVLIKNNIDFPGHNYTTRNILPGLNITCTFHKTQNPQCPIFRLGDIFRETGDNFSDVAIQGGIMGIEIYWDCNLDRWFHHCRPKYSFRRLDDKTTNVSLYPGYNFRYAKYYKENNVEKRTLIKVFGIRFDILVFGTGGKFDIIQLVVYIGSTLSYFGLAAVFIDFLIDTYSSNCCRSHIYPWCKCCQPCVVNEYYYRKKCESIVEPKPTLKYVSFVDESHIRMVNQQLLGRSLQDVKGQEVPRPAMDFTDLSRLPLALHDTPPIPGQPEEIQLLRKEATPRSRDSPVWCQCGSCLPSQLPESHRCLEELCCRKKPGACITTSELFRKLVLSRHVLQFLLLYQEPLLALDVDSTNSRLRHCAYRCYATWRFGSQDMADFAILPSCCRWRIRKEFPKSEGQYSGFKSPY
Method: P2X7 Antagonism in Recombinant Human P2X7 Cells or Recombinant Rat P2X7 Cells: (a) Ca^2+ Flux and (b) Radioligand Binding
(a) Ca^2+ flux: 1321N1 cells expressing the recombinant human or rat P2X7 channel was cultured in HyQ DME/(HyClone/Dulbecco's Modified Eagle Medium) high glucose supplemented with 10% Fetal Bovine Serum (FBS) and appropriate selection marker. Cells were seeded at a density of 25000 cells/well (96-well clear bottom black walled plates) in 100 μl volume/well. On the day of the experiment, cell plates were washed with assay buffer, containing (in mM): 130 NaCl, 2 KCl, 1 CaCl2), 1 MgCl2, 10 HEPES, 5 glucose; pH 7.40 and 300 mOs. After the wash, cells were loaded with the Calcium-4 dye (Molecular Device) and incubated in the dark for 60 minutes. Test compounds were prepared at 250× the test concentration in neat DMSO. Intermediate 96-well compound plates were prepared by transferring 1.2 μL of the compound into 300 μL of assay buffer. A further 3× dilution occurred when transferring 50 μL/well of the compound plate to 100 μL/well in the cell plate. Cells were incubated with test compounds and dye for 30 minutes. […] The fluorescence change was measured 180 seconds after adding the agonist.

[2] = target: T2, rat P2X7 (Rattus norvegicus, UniProt Q64663); test: Ca2+ flux (FLIPR) in 1321N1 cells expressing recombinant rat P2X7 channel; details: FLIPR (rat) IC50 (μM), 250 μM BzATP
T2 sequence (Q64663 1-595): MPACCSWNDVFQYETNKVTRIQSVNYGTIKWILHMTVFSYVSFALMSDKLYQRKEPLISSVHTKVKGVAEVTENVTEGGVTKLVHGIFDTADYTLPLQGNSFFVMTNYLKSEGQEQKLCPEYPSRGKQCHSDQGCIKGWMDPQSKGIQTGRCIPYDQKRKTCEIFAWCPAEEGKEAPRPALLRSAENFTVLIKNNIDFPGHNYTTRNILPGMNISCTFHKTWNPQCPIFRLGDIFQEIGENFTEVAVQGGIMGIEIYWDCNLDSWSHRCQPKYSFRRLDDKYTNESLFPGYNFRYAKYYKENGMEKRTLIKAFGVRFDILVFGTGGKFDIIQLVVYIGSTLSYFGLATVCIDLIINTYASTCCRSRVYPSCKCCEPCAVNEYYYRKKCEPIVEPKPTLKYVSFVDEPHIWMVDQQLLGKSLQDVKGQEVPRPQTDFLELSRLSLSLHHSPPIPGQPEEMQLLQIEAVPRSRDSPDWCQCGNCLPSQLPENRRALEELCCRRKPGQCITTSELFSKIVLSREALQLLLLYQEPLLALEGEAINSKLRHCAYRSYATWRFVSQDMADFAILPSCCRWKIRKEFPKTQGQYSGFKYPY

[3] = target: T1, P2X7; test: Radioligand binding, human P2X7-1321N1 cell membranes, tritiated A-804598

SMILES | pIC50 [1] | IC50 [2] | pKi [3]
O=C(c1cccc(C(F)(F)F)c1Cl)N1CCn2c(-c3ccco3)nnc2[C@@H]1c1ccccc1 [Example 84, (S)-(2-chloro-3-(trifluoromethyl)phenyl)(3-(furan-2-yl)-8-phenyl-5,6-dihydro-[1,2,4]triazolo[4,3-a]pyrazin-7(8H)-yl)methanone] | 8.60 | 0.0031 µM | 7.70
Cc1nnc2n1CCN(C(=O)c1cccc(C(F)(F)F)c1Cl)[C@@H]2c1ccccn1 [Example 91, (R)-(2-chloro-3-(trifluoromethyl)phenyl)(3-methyl-8-(pyridin-2-yl)-5,6-dihydro-[1,2,4]triazolo[4,3-a]pyrazin-7(8H)-yl)methanone] | 8.12 | 2.13 µM | 7.50
O=C(c1ccc(F)c(Cl)c1Cl)N1CCn2c(nnc2C(F)(F)F)[C@H]1c1ccccc1 [Example 124, (R)-(2,3-dichloro-4-fluorophenyl)(8-phenyl-3-(trifluoromethyl)-5,6-dihydro-[1,2,4]triazolo[4,3-a]pyrazin-7(8H)-yl)methanone] | 7.97 | 0.288 µM | 8.10
O=C(c1cccc(C(F)(F)F)c1Cl)N1CCn2c(nnc2C(F)(F)F)C1c1ccn[nH]1 (racemic) [Example 126, (±)-(8-(1H-pyrazol-5-yl)-3-(trifluoromethyl)-5,6-dihydro-[1,2,4]triazolo[4,3-a]pyrazin-7(8H)-yl)(2-chloro-3-(trifluoromethyl)phenyl)methanone] | 5.81 | > 10 µM | –
C[C@H]1Cn2c(nnc2-c2ccc(F)cc2F)CN1C(=O)c1ccc(F)c(Cl)c1Cl [Example 52, (S)-(2,3-dichloro-4-fluorophenyl)(3-(2,4-difluorophenyl)-6-methyl-5,6-dihydro-[1,2,4]triazolo[4,3-a]pyrazin-7(8H)-yl)methanone] | 5.15 | 2.09 µM | –
Cc1nnc2n1CCN(C(=O)c1cccc(Cl)c1Cl)[C@H]2c1ccccn1 [Example 113, (S)-(2,3-dichlorophenyl)(3-methyl-8-(pyridin-2-yl)-5,6-dihydro-[1,2,4]triazolo[4,3-a]pyrazin-7(8H)-yl)methanone] | 5.42 | > 10 µM | –
O=C(c1ccc(F)c(Cl)c1Cl)N1CCn2c(nnc2C(F)(F)F)[C@@H]1c1ccccc1 [Example 125, (S)-(2,3-dichloro-4-fluorophenyl)(8-phenyl-3-(trifluoromethyl)-5,6-dihydro-[1,2,4]triazolo[4,3-a]pyrazin-7(8H)-yl)methanone] | 4.93 | > 10 µM | –
COc1cnc(-c2nnc3n2C[C@H](C)N(C(=O)c2cccc(C(F)(F)F)c2Cl)C3)nc1 [Example 78, (S)-(2-chloro-3-(trifluoromethyl)phenyl)(3-(5-methoxypyrimidin-2-yl)-6-methyl-5,6-dihydro-[1,2,4]triazolo[4,3-a]pyrazin-7(8H)-yl)methanone] | 7.84 | 6.61 µM | –
C[C@H]1Cn2c(nnc2-c2cccc(F)c2F)CN1C(=O)c1cccc(Cl)c1Cl [Example 44, (S)-(2,3-dichlorophenyl)(3-(2,3-difluorophenyl)-6-methyl-5,6-dihydro-[1,2,4]triazolo[4,3-a]pyrazin-7(8H)-yl)methanone] | 5.41 | 1.46 µM | –
O=C(c1cccc(Cl)c1Cl)N1CCn2c(C(F)F)nnc2[C@@H]1c1ccccc1 [Example 111, (S)-(2,3-dichlorophenyl)(3-(difluoromethyl)-8-phenyl-5,6-dihydro-[1,2,4]triazolo[4,3-a]pyrazin-7(8H)-yl)methanone] | < 5.00 | > 10 µM | –
CC1c2nnc(-c3ccc(C(F)(F)F)cc3)n2CCN1C(=O)c1cccc(C(F)(F)F)c1Cl (stereo not shown) [Example 35, (2-chloro-3-(trifluoromethyl)phenyl)(8-methyl-3-(4-(trifluoromethyl)phenyl)-5,6-dihydro-[1,2,4]triazolo[4,3-a]pyrazin-7(8H)-yl)methanone] | < 5.00 | > 10 µM | –
CC1c2nnc(C3CCCCC3)n2CCN1C(=O)c1cccc(C(F)(F)F)c1Cl (stereo not shown) [Example 61, (2-chloro-3-(trifluoromethyl)phenyl)(3-cyclohexyl-8-methyl-5,6-dihydro-[1,2,4]triazolo[4,3-a]pyrazin-7(8H)-yl)methanone] | 6.47 | > 10 µM | –
C[C@H]1Cn2c(nnc2-c2ccc(C(F)(F)F)c(F)c2)CN1C(=O)c1cccc(Cl)c1Cl [Example 28, (S)-(2,3-dichlorophenyl)(3-(3-fluoro-4-(trifluoromethyl)phenyl)-6-methyl-5,6-dihydro-[1,2,4]triazolo[4,3-a]pyrazin-7(8H)-yl)methanone] | 5.13 | 3.78 µM | –
C[C@H]1Cn2c(nnc2-c2ccccc2F)CN1C(=O)c1cccc(C(F)(F)F)c1Cl [Example 39, (S)-(2-chloro-3-(trifluoromethyl)phenyl)(3-(2-fluorophenyl)-6-methyl-5,6-dihydro-[1,2,4]triazolo[4,3-a]pyrazin-7(8H)-yl)methanone] | 5.61 | 9.44 µM | –
C[C@H]1Cn2c(nnc2-c2ccc(F)cc2F)CN1C(=O)c1cccc(C(F)(F)F)c1Cl [Example 51, (S)-(2-chloro-3-(trifluoromethyl)phenyl)(3-(2,4-difluorophenyl)-6-methyl-5,6-dihydro-[1,2,4]triazolo[4,3-a]pyrazin-7(8H)-yl)methanone] | 5.71 | 0.578 µM | –
C[C@H]1Cn2c(nnc2-c2ccc(F)c(F)c2)CN1C(=O)c1cccc(C(F)(F)F)c1Cl [Example 48, (S)-(2-chloro-3-(trifluoromethyl)phenyl)(3-(3,4-difluorophenyl)-6-methyl-5,6-dihydro-[1,2,4]triazolo[4,3-a]pyrazin-7(8H)-yl)methanone] | 5.78 | 0.637 µM | –
O=C(c1cccc(C(F)(F)F)c1Cl)N1CCn2c(C3CCC3)nnc2[C@@H]1c1ccccc1 [Example 94, (S)-(2-chloro-3-(trifluoromethyl)phenyl)(3-cyclobutyl-8-phenyl-5,6-dihydro-[1,2,4]triazolo[4,3-a]pyrazin-7(8H)-yl)methanone] | 6.36 | 2.16 µM | –
CC1Cn2c(nnc2C(F)(F)F)C(c2ccccc2)N1C(=O)c1cccc(C(F)(F)F)c1Cl (racemic) [Example 130, (±)-(2-chloro-3-(trifluoromethyl)phenyl)(6-methyl-8-phenyl-3-(trifluoromethyl)-5,6-dihydro-[1,2,4]triazolo[4,3-a]pyrazin-7(8H)-yl)methanone] | < 5.00 | > 10 µM | –
C[C@H]1Cn2c(nnc2-c2ccccc2F)CN1C(=O)c1ccc(F)c(Cl)c1Cl [Example 40, (S)-(2,3-dichloro-4-fluorophenyl)(3-(2-fluorophenyl)-6-methyl-5,6-dihydro-[1,2,4]triazolo[4,3-a]pyrazin-7(8H)-yl)methanone] | 5.04 | 14.8 µM | –
C[C@H]1Cn2c(nnc2-c2ccc(C(F)(F)F)c(F)c2)CN1C(=O)c1cccc(C(F)(F)F)c1Cl [Example 29, (S)-(2-chloro-3-(trifluoromethyl)phenyl)(3-(3-fluoro-4-(trifluoromethyl)phenyl)-6-methyl-5,6-dihydro-[1,2,4]triazolo[4,3-a]pyrazin-7(8H)-yl)methanone] | 5.45 | 2.97 µM | –
